Measurements from patent US10501414B2, “Indole analogs as 5-oxo-ETE receptor antagonists and method of use thereof” (THE ROYAL INSTITUTION FOR THE ADVANCEMENT OF …, priority 2015, dated 2019).
Where “and” joins values, the source holds several entries; their conditions need not be identical. Equal values may be shown once. Read-outs that look alike come from different tables or passages of the source.

Target: T1, OXE receptor (Homo sapiens, UniProt Q8TDS5)
T1 construct: Human granulocytes (≥95% neutrophils) are prepared from whole blood; endogenous in cells; host or cells: human granulocytes (≥95% neutrophils) from whole blood
T1 sequence (Q8TDS5 whole entry): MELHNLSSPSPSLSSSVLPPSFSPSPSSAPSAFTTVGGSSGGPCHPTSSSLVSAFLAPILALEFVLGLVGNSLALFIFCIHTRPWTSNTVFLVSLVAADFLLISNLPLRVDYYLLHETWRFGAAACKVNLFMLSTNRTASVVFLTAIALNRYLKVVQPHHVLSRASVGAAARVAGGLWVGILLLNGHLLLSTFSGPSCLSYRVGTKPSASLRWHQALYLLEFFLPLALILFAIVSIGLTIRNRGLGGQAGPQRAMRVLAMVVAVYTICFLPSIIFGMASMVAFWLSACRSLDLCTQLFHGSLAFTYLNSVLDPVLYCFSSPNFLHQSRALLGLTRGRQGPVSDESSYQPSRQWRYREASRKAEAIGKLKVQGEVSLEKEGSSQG
Assay: Calcium mobilization in human granulocytes (inhibition of 5-oxo-ETE-induced calcium mobilization)
Assay type: cell-based
Method: Evaluation of Antagonist Activity: Calcium Mobilization in Human Granulocytes
Human granulocytes (≥95% neutrophils) are prepared from whole blood using Dextran 500 to remove red blood cells, followed by centrifugation over Ficoll-Paque to remove mononuclear cells and hypotonic lysis of any remaining red blood cells. After centrifugation the granulocytes are suspended in Ca^++/Mg^++-free phosphate-buffered saline (PBS^−). Granulocytes (10^7 cells/ml) are incubated with the acetoxymethyl ester of indo-1 (1 μM) for 30 min, followed by washing twice with PBS^− and resuspension in the same medium to obtain a final cell concentration of 3.22×10^6 cells/ml. Five minutes prior to commencing data acquisition, Ca^++ and Mg^++ are added to give final concentrations of 1.8 and 1 mM, respectively. Calcium measurements are performed at 37° C. using a spectrofluorometer equipped with a temperature-controlled cuvette holder and a magnetic stirrer. The excitation and emission wavelengths are 331 nm and 410 nm, respectively. Following stabilization of the baseline, fluorescence is measured for 1 min, prior to the addition of either vehicle or various concentrations of a potential 5-oxo-ETE antagonist. Two min later, 5-oxo-ETE (10 nM) is added, followed 1 min later by digitonin (final concentration 0.1%). Data acquisition is terminated after a further 0.5 min. Fmax is determined from fluorescence measurements after the addition of digitonin, whereas Fmin is determined after determination of autofluorescence as described in the literature. A dissociation constant of 250 nM for the indo-1/Ca^++ complex is used to calculate [Ca^++]i. The % inhibition of 5-oxo-ETE-induced calcium mobilization by the antagonist is calculated as follows: Inhibition (%)=(1−(Caant/Ca^++veh))×100 where Caant is the increase in cytosolic calcium levels induced by 5-oxo-ETE (10 nM) following the addition of a potential antagonist, whereas Caveh is the response induced by 5-oxo-ETE following addition of vehicle alone.

[1] = inhibition of calcium mobilization induced by 5-oxo-ETE (10 nM) in human granulocytes, bracketed figure in cell = n, read-out: IC50
[2] = 5-oxo-ETE-induced calcium mobilization
[3] = 5-oxo-ETE-induced calcium mobilization, read-out: potency (IC50) in the picomolar range

SMILES | IC50 [1] [nM] | other results
COc1ccccc1CCCCCCc1c(C(=O)C[C@@H](C)CC(=O)O)c2cc(Cl)ccc2n1C (single isomer, unassigned) [Compound 64] | 54 ± 23 | 
COc1ccccc1CCCCCC(O)c1c(C(=O)C[C@H](C)CC(=O)O)c2cc(Cl)ccc2n1C (stereo partly shown) [Compound 49M] | 0.58 ± 0.21 | antagonist activity / potency in words [2]: antagonists and 5-oxo-ETE-induced calcium mobilization inhibitors
C[C@H](CC(=O)O)CC(=O)c1c(CCCCCCc2ccc(F)cc2)n(C)c2ccc(Cl)cc12 [Compound 54, (S)-5-(5-chloro-2-(6-(4-fluorophenyl)hexyl)-1-methyl-1H-indol-3-yl)-3-methyl-5-oxopentanoic acid] | 0.39 ± 0.09 | 
COc1cccc(CCCCCCc2c(C(=O)CC(C)CC(=O)O)c3cc(Cl)ccc3n2C)c1 (racemic) [Compound 22, 5-(5-chloro-2-(6-(3-methoxyphenyl)hexyl)-1-methyl-1H-indol-3-yl)-3-methyl-5-oxopentanoic acid] | 0.086 ± 0.017 | IC50 [3]: ~0.086 nM
CC(CC(=O)O)CC(=O)c1c(CCCCCc2ccccc2)n(C)c2ccc(Cl)cc12 (stereo not shown) [Compound 14, 5-(5-chloro-1-methyl-2-(5-phenylpentyl)-1H-indol-3-yl)-3-methyl-5-oxopentanoic acid] | 11 ± 1 | 
C[C@H](CC(=O)O)CC(=O)c1c(C(O)CCCCCc2cccc(Cl)c2)n(C)c2ccc(Cl)cc12 (stereo partly shown) [Compound 50M] | 0.08 ± 0.02 | 
C[C@@H](CC(=O)O)CC(=O)c1c(CCCCCCc2ccc(F)cc2)n(C)c2ccc(Cl)cc12 (single isomer, unassigned) [Compound 69] | 4.45 ± 1.05 | 
CC(CC(=O)O)CC(=O)c1c(CCCCCCc2ccccc2F)n(C)c2ccc(Cl)cc12 (stereo not shown) [Compound 18, 5-(5-chloro-2-(6-(2-fluorophenyl)hexyl)-1-methyl-1H-indol-3-yl)-3-methyl-5-oxopentanoic acid] | 0.41 ± 0.07 | 
C[C@H](CC(=O)O)CC(=O)c1c(CCCCCCc2ccccc2Cl)n(C)c2ccc(Cl)cc12 [Compound 47, (S)-5-(5-chloro-2-(6-(2-chlorophenyl)hexyl)-1-methyl-1H-indol-3-yl)-3-methyl-5-oxopentanoic acid] | 0.55 ± 0.19 | 
CC(CC(=O)O)CC(=O)c1c(CCCCCCO)n(C)c2ccc(Cl)cc12 (stereo not shown) [V230 ω-OH, reference compound] | 260 ± 30 | 
CC(CC(=O)O)CC(=O)c1c(CCCc2ccccc2)n(C)c2ccc(Cl)cc12 (stereo not shown) [Compound 12, 5-(5-chloro-1-methyl-2-(3-phenylpropyl)-1H-indol-3-yl)-3-methyl-5-oxopentanoic acid, reference compound] | 223 ± 18 | reduction of potency compared to V230 (relative to V230): about 8 fold
C[C@H](CC(=O)O)CC(=O)c1c(CCCCCCc2cccc(F)c2)n(C)c2ccc(Cl)cc12 (single isomer, unassigned) [Compound 51] | 0.037 ± 0.005 | 
CCC(C)CCCc1c(C(=O)CC(C)CC(=O)O)c2cc(Cl)ccc2n1C (stereo not shown) [Compound V225, reference compound] | 88 ± 26 | antagonist activity / potency in words [2]: somewhat less potent
CCCCCC(O)c1c(C(=O)CC(C)CC(=O)O)c2cc(Cl)ccc2n1C (stereo not shown) [Compound V230M, reference compound] | 3300 ± 1100 | antagonist activity / potency in words [2]: significantly reduced IC50
CC(CC(=O)O)CC(=O)c1c(CCCCCCc2ccc(F)cc2)n(C)c2ccc(Cl)cc12 (stereo not shown) [Compound 24, 5-(5-chloro-2-(6-(4-fluorophenyl)hexyl)-1-methyl-1H-indol-3-yl)-3-methyl-5-oxopentanoic acid] | 0.8 ± 0.24 | 
C[C@H](CC(=O)O)CC(=O)c1c(CCCCCCc2ccc(Cl)cc2)n(C)c2ccc(Cl)cc12 [Compound 53, (S)-5-(5-chloro-2-(6-(4-chlorophenyl)hexyl)-1-methyl-1H-indol-3-yl)-3-methyl-5-oxopentanoic acid] | 0.47 ± 0.16 | 
CC(CC(=O)O)CC(=O)c1c(CCCCCCc2cccc(F)c2)n(C)c2ccc(Cl)cc12 (racemic) [Compound 21, 5-(5-chloro-2-(6-(3-fluorophenyl)hexyl)-1-methyl-1H-indol-3-yl)-3-methyl-5-oxopentanoic acid] | 0.072 ± 0.007 | IC50 [3]: ~0.072 nM
COc1ccccc1CCCCCCc1c(C(=O)CC(C)CC(=O)O)c2cc(Cl)ccc2n1C (stereo not shown) [Compound 19, 5-(5-chloro-2-(6-(2-methoxyphenyl)hexyl)-1-methyl-1H-indol-3-yl)-3-methyl-5-oxopentanoic acid] | 0.18 ± 0.05 | 
CC(CC(=O)O)CC(=O)c1c(CCCCCCc2ccccc2Cl)n(C)c2ccc(Cl)cc12 (stereo not shown) [Compound 17, 5-(5-chloro-2-(6-(2-chlorophenyl)hexyl)-1-methyl-1H-indol-3-yl)-3-methyl-5-oxopentanoic acid] | 0.44 ± 0.13 | 
C[C@@H](CC(=O)O)CC(=O)c1c(CCCCCCc2ccccc2F)n(C)c2ccc(Cl)cc12 (single isomer, unassigned) [Compound 63] | 2.9 ± 0.1 | 
C[C@@H](CC(=O)O)CC(=O)c1c(CCCC/C=C\c2ccccc2)n(C)c2ccc(Cl)cc12 [Compound 96] | 5.5 | 
C[C@H](CC(=O)O)CC(=O)c1c(CCCC/C=C/c2ccccc2)n(C)c2ccc(Cl)cc12 [Compound 97] | 0.071 ± 0.024 | 
COc1cccc(CCCCCCc2c(C(=O)C[C@@H](C)CC(=O)O)c3cc(Cl)ccc3n2C)c1 (single isomer, unassigned) [Compound 67] | 50 ± 13 | 

The remaining compounds from weak to strong by IC50 [1], led by results:

IC50 [1] [nM] | SMILES | other results
1600 ± 400 | CC(O)CCCCc1c(C(=O)CC(C)CC(=O)O)c2cc(Cl)ccc2n1C (stereo not shown) [Met a V230 (ω-1)OH, reference compound] | times less potent than compound V230 in blocking 5-oxo-ETE-induced calcium mobilization in neutrophils (relative to V230): about 100 times
81 ± 34 | C[C@@H](CC(=O)O)CC(=O)c1c(CCCCCCc2ccccc2Cl)n(C)c2ccc(Cl)cc12 (single isomer, unassigned) [Compound 62] | 
38 ± 8 | CC(CC(=O)O)CC(=O)c1c(CCCCc2ccccc2)n(C)c2ccc(Cl)cc12 (racemic) [Compound 13, methyl 5-(5-chloro-1-methyl-2-(4-phenylbutyl)-1H-indol-3-yl)-3-methyl-5-oxopentanoic acid] | 
1.93 ± 0.6 | CC(CC(=O)O)CC(=O)c1c(/C=C/CCCCc2ccccc2)n(C)c2ccc(Cl)cc12 (stereo not shown) [Compound 85, (E)-5-(5-chloro-1-methyl-2-(6-phenylhex-1-en-1-yl)-1H-indol-3-yl)-3-methyl-5-oxopentanoic acid] | 
1.8 ± 0.3 | C[C@@H](CC(=O)O)CC(=O)c1c(CCCCCCc2cccc(F)c2)n(C)c2ccc(Cl)cc12 (single isomer, unassigned) [Compound 66] | 
1.4 ± 0.4 | C[C@H](CC(=O)O)CC(=O)c1c(C(O)CCCCCc2ccc(F)cc2)n(C)c2ccc(Cl)cc12 (stereo partly shown) [Compound 54M] | antagonist activity / potency in words [2]: antagonists and 5-oxo-ETE-induced calcium mobilization inhibitors
1.1 ± 0.19 | C[C@@H](CC(=O)O)CC(=O)c1c(CCCC/C=C/c2ccccc2)n(C)c2ccc(Cl)cc12 [Compound 98] | 
0.7 | CC(CC(=O)O)CC(=O)c1c(COCCCc2ccccc2)n(C)c2ccc(Cl)cc12 (stereo not shown) [Compound 83, 5-(5-chloro-1-methyl-2-((3-phenylpropoxy)methyl)-1H-indol-3-yl)-3-methyl-5-oxopentanoic acid] | 
0.65 ± 0.36 | CC(CC(=O)O)CC(=O)c1c(CCCCC=Cc2ccccc2)n(C)c2ccc(Cl)cc12 (stereo not shown) [Compound 94, 5-[5-Chloro-1-methyl-2-(6-phenyl-hex-5-enyl)-1H-indol-3-yl]-3-methyl-5-oxopentanoic acid] | 
0.64 ± 0.1 | C[C@@H](CC(=O)O)CC(=O)c1c(CCCCCCc2cccc(Cl)c2)n(C)c2ccc(Cl)cc12 (single isomer, unassigned) [Compound 65] | 
0.63 ± 0.22 | CC(CC(=O)O)CC(=O)c1c(CCCCCCc2ccc(Cl)cc2)n(C)c2ccc(Cl)cc12 (stereo not shown) [Compound 23, 5-(5-chloro-2-(6-(4-chlorophenyl)hexyl)-1-methyl-1H-indol-3-yl)-3-methyl-5-oxopentanoic acid] | 
0.63 ± 0.08 | COc1ccc(CCCCCCc2c(C(=O)CC(C)CC(=O)O)c3cc(Cl)ccc3n2C)cc1 (stereo not shown) [Compound 25, 5-(5-chloro-2-(6-(4-methoxyphenyl)hexyl)-1-methyl-1H-indol-3-yl)-3-methyl-5-oxopentanoic acid] | 
0.62 ± 0.29 | C[C@H](CC(=O)O)CC(=O)c1c(CCCC/C=C\c2ccccc2)n(C)c2ccc(Cl)cc12 [Compound 95] | 
0.27 ± 0.06 | C[C@H](CC(=O)O)CC(=O)c1c(CCCCCCc2ccccc2F)n(C)c2ccc(Cl)cc12 (single isomer, unassigned) [Compound 48] | 
0.1 ± 0.02 | COc1ccccc1CCCCCCc1c(C(=O)C[C@H](C)CC(=O)O)c2cc(Cl)ccc2n1C [Compound 49, (S)-5-(5-chloro-2-(6-(2-methoxyphenyl)hexyl)-1-methyl-1H-indol-3-yl)-3-methyl-5-oxopentanoic acid] | 
